Data published in patent publication EP4000614A1, “EFLOXATE FOR USE AS ANTIVIRAL AGENT” (Consejo Superior de Investigaciones Científicas (CSIC), priority 2020, dated 2022).

What was measured:
[1] = test system: SARS-CoV-2 strain NL/2020; assay: SARS-CoV-2 cell monolayer protection assay (crystal violet) in Vero-E6 cells
[2] = in vitro; details: human
[3] = test system: pseudotypes based on vesicular stomatitis virus (VSV-G) glycoprotein; format: cell-based
[4] = test system: SARS-CoV-2 E RNA; assay: Intracellular viral RNA quantitation by RT-qPCR in Vero-E6 cells; format: cell-based; details: for VIRAL LOAD MOI 0.001 (% OF CONTROL): MOI 0.001, 48 hours, Vero-E6; for LOG DROP: relative reduction in viral RNA accumulation in log scale
[5] = Cytotoxicity measurement by MTT assay; format: cell-based; details: African green monkey, Vero-E6 cells
Method: (§1) Cytotoxicity measurement by MTT assays (MTT assay: cell viability assay that infers reductive capacity of the cells via formation of formazan precipitates. Overall estimation of cell metabolic rate): Vero-E6 cell monolayers were treated with a wide range of compound concentrations (from 50 to 0.78 µM) and forty-eight hours later they were subjected to MTT assays following the manufacturer's instructions. Compound concentration leading to a 50% of cytotoxicity (CC50) were determined (Table 2).

[6] = test system: Vero-E6 cells; assay: Cytotoxicity measurement by MTT assay; format: cell-based; details: 48 hours
Method: as §1

[7] = test system: RD114-pseudotypes; format: cell-based
[8] = test system: 229E-GFP virus; assay: microbe, parasite or virus in culture; format: cell-based, human 229E coronavirus; details: 72 h
[9] = test system: SARS-CoV-2 S protein-pseudotyped retroviral vectors; format: cell-based

CCOC(=O)COc1ccc2c(=O)cc(-c3ccccc3)oc2c1 [Efloxate, efloxate]
PC MAX ([1]; Maximum concentration that protects cells (100%) from the cytopathic effect, Vero-E6, MOI 0.001, 72 hours): 50 µM
PC MIN ([1]; Minimum concentration that protects cells (100%) from the cytopathic effect, Vero-E6, MOI 0.001, 72 hours): 25 µM
antiviral activity at non-cytotoxic concentrations ([1]; human coronavirus, including SARS-CoV-2): 12.5 to 50 µM
CC50 at 72 h [2]: 35 µM
VSVpp (% of control) [3]: 106.24 % of control
VIRAL LOAD MOI 0.001 (% OF CONTROL) ([4]; dose 12.5 µM): 27.42 % OF CONTROL
VIRAL LOAD MOI 0.001 (% OF CONTROL) ([4]; dose 25 µM): 24.34 % OF CONTROL
VIRAL LOAD MOI 0.001 (% OF CONTROL) ([4]; dose 35 µM): 0.00 % OF CONTROL
VIRAL LOAD MOI 0.001 (% OF CONTROL) ([4]; dose 50 µM): 0.06 % OF CONTROL
LOG DROP ([4]; dose 12.5 µM): 0.55
LOG DROP ([4]; dose 25 µM): 0.6
LOG DROP ([4]; dose 35 µM): 5.5
LOG DROP ([4]; dose 50 µM): 3.2
CC50 at 48 h [5]: > 50 µM
HIGHEST NON-TOXIC CONCENTRATION (MTT) [6]: 12.5
RD114pp (% of control) [7]: 153.15 % of control
EC50 ([8]; human coronavirus 229E): 1.6 µM
EC90 ([8]; unidentified human coronavirus): 5 µM
Spp (% of control) [9]: 16.68 % of control
pseudotype entry selectivity [9]: interfere selectively with Spp entry
